{"source": "patent US9629843B2", "about": "“MTOR modulators and uses thereof” (The Regents of the University of California, priority 2008, dated 2017)", "key": {"[1]": {"test_system": "Akt phosphorylation (S473, T308) in MEFs", "assay": "Akt phosphorylation in wild-type and SIN1−/− mouse embryonic fibroblasts (immunoblot)", "type": "cell-based", "experimental": "Wild-type and SIN1−/− primary mouse embryonic fibroblasts (MEFs) were grown in DMEM supplemented with about 10% FBS, glutamine and penicillin/streptomycin. MEFs were treated with TORKinib at about 2.5, 0.63, and 0.16 uM; rapamycin at approximately 15 nM; or PIK-90 at 625 nM for 30 minutes prior to insulin stimulation (e.g. 100 nM) for 10 minutes. Cells were lysed by scraping into ice cold lysis buffer (typically 300 mM NaCl, 50 mM Tris pH 7.5, 5 mM EDTA, 1% TRITON™ X-100, 0.02% NaN3, 20 nM microcystin, Sigma phosphatase inhibitor cocktails 1 and 2, Roche protease inhibitor cocktail and 2 mM PMSF). After contacting cells with lysis buffer, the solution was briefly sonicated. Lysates were cleared by centrifugation, resolved by SDS-PAGE, transferred to nitrocellulose and immunoblotted using antibodies to phospho-Akt S473, phospho-Akt T308, Akt, and β-actin (Cell Signaling Technologies)."}, "p70S6K phosphorylation": {"test_system": "p70S6K phosphorylation", "assay": "p70S6K phosphorylation in mpkCCD cells", "type": "cell-based"}, "[2]": {"test_system": "Akt substrates (GSK3, TSC2, FoxO1/O3a) in L6 myotubes", "assay": "Phosphorylation of Akt substrates in insulin stimulated L6 myotubes", "type": "cell-based", "settings": "FIG. 6"}, "[3]": {"test_system": "cap-dependent translation", "assay": "Cap-dependent translation, m7GTP affinity, p190 cells", "type": "cell-based", "settings": "IM at 5 μM; FIG. 38D"}, "[4]": {"test_system": "ENaC-dependent Na+ current", "assay": "ENaC-dependent Na+ transport in mpkCCD cells"}, "SGK1 pS422": {"test_system": "SGK1 pS422", "assay": "HM (pS422) phosphorylation of flag-tagged SGK1 in HEK293 cells", "type": "cell-based, Human", "settings": "insulin, FIG. 28C"}, "SGK1 phosphorylation": {"test_system": "SGK1 phosphorylation", "assay": "SGK1 phosphorylation in mpkCCD cells (mobility shift immunoblot)", "type": "cell-based", "settings": "at a concentration of 0.3 μM"}, "[5]": {"test_system": "S6K, S6, 4EBP1 phosphorylation in L6 myotubes", "assay": "Phosphorylation of S6K, S6 and 4EBP1 in insulin stimulated L6 myotubes", "type": "cell-based"}, "Tolerability in mice": {"assay": "Tolerability in mice", "type": "in vivo", "settings": "10, 30 or 100 mg/kg, four times or twice daily, p.o."}, "[6]": {"test_system": "Akt phosphorylation (S473, T308) in L6 myotubes", "assay": "Akt phosphorylation in insulin stimulated L6 myotubes (immunoblot)", "type": "cell-based", "settings": "100 nM insulin, FIG. 3", "experimental": "L6 myoblasts were grown typically grown in DMEM supplemented with about 10% FBS, glutamine and penicillin/streptomycin. Confluent L6 myoblasts were differentiated into mytubes by culturing them for approximately 5 days in media containing about 2% FBS. L6 myotubes were maintained in media containing approximately 2% FBS until use.\nIn order to compare the effect of TORKinibs and PIK-90 on Akt phosphorylation, L6 myotubes were serum starved overnight and incubated with inhibitors or about 0.1% DMSO for approximately 30 minutes prior to stimulation with insulin (e.g. 100 nM) for about 10 minutes. Cells were lysed by scraping into ice cold lysis buffer (generally: 300 mM NaCl, 50 mM Tris pH 7.5, 5 mM EDTA, 1% TRITON™ X-100, 0.02% NaN3, 20 nM microcystin, Sigma phosphatase inhibitor cocktails 1 and 2, Roche protease inhibitor cocktail and 2 mM PMSF). After contacting cells with lysis buffer, the solution was briefly sonicated. Lysates were cleared by centrifugation, resolved by SDS-PAGE, transferred to nitrocellulose and immunoblotted using antibodies to phospho-Akt S473, phospho-Akt T308, Akt, and β-actin (Cell Signaling Technologies)."}, "[7]": {"test_system": "mTORC2/AKT and mTORC1 signaling", "assay": "mTORC2/AKT and mTORC1 signaling in p190 cells (western blot)", "type": "cell-based", "settings": "FIGS. 38A-38B", "experimental": "Western blots of p190 cells treated for 1.5 hr (a) or 3 hr (b) with indicated inhibitors are depicted in FIG. 38A and FIG. 38B. […] Clinically achievable concentrations of IM (1.0 μM) and DA (100 nM) were used for the combination treatments. See also FIGS. 40A-40B. Activation of PI3K was quantified in cells by signal pixel intensity and localized area of PIP3 accumulation by confocal microscopy, as depicted in FIG. 38C. […] A minimum of 250 cells was quantified from 2 separate images. […] Representative images depict PIP3 accumulation, nuclear content (DAPI stain) merged onto DIC images (13.5 μm scale bar). […] Autophagy (LC3 puncta accumulation), loss of proliferation (EdU accumulation), and distinct localization patterns of Foxo1 were assessed by confocal microscopy and representative cells were magnified for clarity. Cytoplasmic localization of Foxo1 corresponds to AKT activation, whereas nuclear accumulation signifies AKT inhibition."}, "[8]": {"assay": "Metabolic stability in microsome and cellular assays", "type": "in vitro ADME"}, "[9]": {"assay": "Pharmacokinetics of PP242", "settings": "in vivo"}, "4EBP1 binding to eIF-4E": {"test_system": "4EBP1 binding to eIF-4E", "assay": "m7GTP cap pull-down assay in L6 myotubes", "type": "cell-based", "settings": "insulin stimulated L6 myotubes; FIG. 10"}, "[10]": {"test_system": "ENaC-dependent Na+ current"}, "[11]": {"test_system": "Akt-S473 and S6 phosphorylation in T cells", "assay": "Phosflow of anti-CD3 stimulated murine splenocytes", "type": "cell-based"}, "[12]": {"test_system": "Akt, S6, 4EBP1 phosphorylation in tissues", "assay": "In vivo effect on insulin signaling in fat, skeletal muscle and liver of mice", "parameters": "species or system C57BL/6 mice"}, "Tolerability in rats": {"assay": "Tolerability in rats", "type": "in vivo", "settings": "10, 30 or 100 mg/kg, four times or twice daily, p.o."}, "[13]": {"test_system": "PI3K signaling (PIP3 accumulation)", "assay": "PIP3 accumulation in p190 cells by confocal microscopy", "type": "cell-based", "settings": "20 and 200 nM, 4 hr; FIG. 38C"}, "[14]": {"test_system": "myristolated-Akt transgenic thymocytes tumors", "assay": "Akt murine allograft tumor model", "type": "in vivo, NOD/SCID mice"}, "[15]": {"assay": "Genetic toxicology (mini-Ames test)"}, "[16]": {"test_system": "p70S6K, 4EBP1 phosphorylation in MEFs", "assay": "Phosphorylation of 70S6K and 4EBP1 in mouse embryonic fibroblasts", "type": "cell-based", "settings": "wild-type and SIN1−/− MEFs; FIG. 11", "experimental": "Wild-type and SIN1−/− primary mouse embryonic fibroblasts (MEFs) were grown in DMEM supplemented with about 10% FBS, glutamine and penicillin/streptomycin. MEFs were treated with TORKinib at approximately 2.5, 0.63, and 0.16 uM; rapamycin at about 15 nM; or PIK-90 at about 625 nM for approximately 30 minutes prior to insulin stimulation (e.g. 100 nM) for about 10 minutes. Cells were lysed by scraping into ice cold lysis buffer (generally: 300 mM NaCl, 50 mM Tris pH 7.5, 5 mM EDTA, 1% TRITON™ X-100, 0.02% NaN3, 20 nM microcystin, Sigma phosphatase inhibitor cocktails 1 and 2, Roche protease inhibitor cocktail and 2 mM PMSF). After contacting cells with lysis buffer, the solution was briefly sonicated. Lysates were cleared by centrifugation, resolved by SDS-PAGE, transferred to nitrocellulose and immunoblotted using antibodies to phospho-p70S6K T389, phospho-4EBP1 T37/46, phospho-4EBP1 S65, and β-actin (Cell Signaling Technologies)."}}, "note": "“Also recorded” adds a separate entry of the source.", "data": [{"smiles": "CC(C)n1nc(-c2cc3cc(O)ccc3[nH]2)c2c(N)ncnc21", "note": "[PP242]", "values": [{"measurement": "phosphorylation of Akt T308", "setting": "[1]; SIN1−/− MEFs", "value": "has no effect"}, {"measurement": "phosphorylation of Akt at S473 and T308", "setting": "[1]; wild-type MEFs", "value": "inhibits the phosphorylation of Akt at both S473 and T308"}, {"measurement": "p70S6K phosphorylation", "setting": "p70S6K phosphorylation", "value": "eliminated the band detected by anti-phospho p70S6K antibody"}, {"measurement": "phosphorylation of Akt and its substrates", "setting": "[2]", "value": "partially inhibited"}, {"measurement": "cap-dependent translation", "setting": "[3]", "value": "inhibit cap-dependent translation"}, {"measurement": "T1/2 of effect on Na+ current", "setting": "[4]; FIG. 29B", "value": "approximately 15 minutes"}, {"measurement": "amiloride-sensitive Na+ current", "setting": "[4]; at a concentration of 0.3 μM", "value": "completely abolished"}, {"measurement": "aldosterone-induced Na+ current", "setting": "[4]; mpkCCD cells", "value": "completely blocked aldosterone-induced current"}, {"measurement": "pS422-SGK1 band", "setting": "SGK1 pS422", "value": "abrogated"}, {"measurement": "phosphorylation of SGK1", "setting": "SGK1 phosphorylation", "value": "completely abolished"}, {"measurement": "phosphorylation of 4EBP1 at S65", "setting": "[5]", "value": "fully inhibits"}, {"measurement": "phosphorylation of 4EBP1 at T70", "setting": "[5]", "value": "neither rapamycin nor TORKinib affect"}, {"measurement": "phosphorylation of 4EBP1 at T37/46", "setting": "[5]; listed as TORKinib", "value": "fully inhibits; also recorded: able to inhibit"}, {"measurement": "tolerability", "setting": "Tolerability in mice", "value": "tolerated"}, {"measurement": "insulin stimulated phosphorylation of Akt at S473 and T308", "setting": "[6]", "value": "inhibit insulin stimulated phosphorylation of Akt at S473"}, {"measurement": "mTORC2/AKT and mTORC1 signaling in B-ALL", "setting": "[7]", "value": "completely inhibits mTORC2/AKT and mTORC1 signaling"}, {"measurement": "metabolic stability", "setting": "[8]", "value": "metabolically stable"}, {"measurement": "clearance", "setting": "[9]", "value": "moderate"}, {"measurement": "volume of distribution", "setting": "[9]", "value": "good"}, {"measurement": "oral bioavailability (F %)", "setting": "[9]; po", "value": "30-70%"}, {"measurement": "retention of 4EBP1 on eIF-4E (m7GTP pull-down)", "setting": "4EBP1 binding to eIF-4E", "value": "caused a greater retention of 4EBP1"}, {"measurement": "toxic effect of prolonged treatment", "setting": "[10]", "value": "diminishes electrical resistance and causes morphological changes"}, {"measurement": "anti-CD3 mediated phosphorylation of Akt-S473", "setting": "[11]", "value": "inhibits"}, {"measurement": "anti-CD3 mediated phosphorylation of S6", "setting": "[11]", "value": "inhibits"}, {"measurement": "S6 phosphorylation", "setting": "[12]; all tissues examined", "value": "equally inhibited"}, {"measurement": "phosphorylation of 4EBP1 on T37/46 and S65", "setting": "[12]; all tissues examined", "value": "effective at blocking"}, {"measurement": "phosphorylation of Akt at S473 and T308", "setting": "[12]; fat and liver, i.p., insulin stimulated mice", "value": "completely inhibit"}, {"measurement": "phosphorylation of Akt", "setting": "[12]; skeletal muscle", "value": "only partially able to inhibit"}, {"measurement": "tolerability", "setting": "Tolerability in rats", "value": "tolerated"}, {"measurement": "PI3K signaling (PIP3 accumulation)", "setting": "[13]", "value": "had no significant effect"}, {"measurement": "tumor growth", "setting": "[14]; PP242 100 mg/kg, rapamycin 5 mg/kg, gavage daily, 20 days", "value": "no tumor growth"}, {"measurement": "body weight", "setting": "[14]; after 20 days of treatment", "value": "maintained body weight"}, {"measurement": "genetic toxicology (mini-Ames test)", "setting": "[15]", "value": "clean profile"}, {"measurement": "phosphorylation of p70S6K and 4EBP1", "setting": "[16]", "value": "more complete inhibitor of 4EBP1 phosphorylation under the conditions tested than rapamycin"}]}]}
